According to patent publication US11701347B2, “Use of 5-fluoro-4-(4-fluoro-2-methoxyphenyl)-N-{4-[(S-methylsulfonimidoyl)methyl]pyridin-2-yl}pyridin-2-amine for treating diffuse large B-cell lymphoma” (Bayer Aktiengesellschaft, priority 2018, dated 2023):

Assays:
[1] = system: DB; test: Cell proliferation assay (CellTiter Glo, 72 h); assay type: cell-based; conditions: Homo sapiens, DLBCL GCB subtype
Experimental: (§1) The proliferation of all (DLCBL) cell lines in the presence of different concentrations of Compound A′ or FR compound for 72 h was assessed using CellTiter Glo kits (Promega Corporation, Madison, Wis.). All expressed values were averages of triplicate experiments, and IC50 was calculated using GraphPad Prism 5 (GraphPad Software, San Diego, Calif.) according to the manufacturer's instructions or the MTS software.

[2] = system: HBL1; test: Cell proliferation assay (CellTiter Glo, 72 h); assay type: cell-based; conditions: HBL1, DLBCL ABC subtype
Experimental: as §1

[3] = system: HT; test: Cell proliferation assay (CellTiter Glo, 72 h); assay type: cell-based; conditions: Homo sapiens, DLBCL GCB subtype
Experimental: as §1

[4] = system: OCI-LY-19; test: Cell proliferation assay (CellTiter Glo, 72 h); assay type: cell-based; conditions: Homo sapiens, OCI-LY19, OCI-LY-19, DLBCL GCB subtype
Experimental: as §1

[5] = system: OCI-LY-3; test: Cell proliferation assay (CellTiter Glo, 72 h); assay type: cell-based; conditions: Homo sapiens, OCI-Ly3, OCI-LY-3, DLBCL ABC subtype
Experimental: as §1

[6] = system: SU-DHL-10; test: Cell proliferation assay (CellTiter Glo, 72 h); assay type: cell-based; conditions: Homo sapiens, SU-DHL10, SU-DHL-10, DLBCL GCB subtype
Experimental: as §1

[7] = system: SU-DHL-4; test: Cell proliferation assay (CellTiter Glo, 72 h); assay type: cell-based; conditions: Homo sapiens, SU-DHL-4, DLBCL GCB subtype
Experimental: as §1

[8] = system: SU-DHL-5; test: Cell proliferation assay (CellTiter Glo, 72 h); assay type: cell-based; conditions: Homo sapiens, SU-DHL-5, DLBCL GCB subtype
Experimental: as §1

[9] = system: SU-DHL-6; test: Cell proliferation assay (CellTiter Glo, 72 h); assay type: cell-based; conditions: Homo sapiens, SU-DHL-6, DLBCL GCB subtype
Experimental: as §1

[10] = system: SU-DHL-8; test: Cell proliferation assay (CellTiter Glo, 72 h); assay type: cell-based; conditions: Homo sapiens, SU-DHL-8, DLBCL GCB subtype
Experimental: as §1

[11] = system: TMD8; test: Cell proliferation assay (CellTiter Glo, 72 h); assay type: cell-based; conditions: Homo sapiens, TMD8, DLBCL ABC subtype
Experimental: as §1

[12] = system: subcutaneous DLBCL OCI-LY-3 xenografts; test: In vivo efficacy in DLBCL OCI-LY-3 xenograft model; design: species or system female SCID mice; conditions: 10 mg/kg q7d iv, 14 days, end of experiment
Experimental: (§2) The aim of the present experiments was to assess the in vivo efficacy and tolerability of Compound A′ in monotherapy in the DLBCL OCI-LY-3 tumour model subcutaneously implanted in SCID mice. In vivo efficacy was determined in female SCID mice bearing subcutaneous DLBCL OCI-LY-3 xenografts. Compound A′ was assessed at one dose level in monotherapy. Anti-tumour activity and tolerability of the treated group was assessed using the vehicle control group as a reference.
(§3) At randomisation, the area of growing tumours was initially determined Animals bearing one tumour of an area of 25-35 mm2 were distributed in experimental groups according to the study protocol. The day of randomisation is designated as day 0 of an experiment Animals either received Compound A′ (formulated in 30% PEG400/10% Ethanol/60%water), at a dose of 10 mg/kg q7d intravenously or vehicle control (qd po) for a period of 14 days.
At the end of the experiment Treatment to Control ratios (T/C) were calculated based on the mean tumor area and the mean tumor weight in the Compound A′ treatment group and in the vehicle control group.

[13] = system: subcutaneous DLBCL SU-DHL-10 xenografts; test: In vivo efficacy in DLBCL SU-DHL-10 xenograft model; design: species or system female SCID mice; conditions: 15 mg/kg q7d iv, 16 days, end of experiment
Experimental: (§4) The aim of the present experiments was to assess the in vivo efficacy and tolerability of Compound A′ in monotherapy in the DLBCL SU-DHL-10 tumour model subcutaneously implanted in SCID mice. In vivo efficacy was determined in female SCID mice bearing subcutaneous DLBCL SU-DHL-10 xenografts. Compound A′ was assessed at one dose level in monotherapy. Anti-tumour activity and tolerability of the treated group was assessed using the vehicle control group as a reference. […] At randomisation, the area of growing tumours was initially determined Animals bearing one tumour of an area of 25-35 mm2 were distributed in experimental groups according to the study protocol. The day of randomisation is designated as day 0 of an experiment Animals either received Compound A′ (formulated in 30% PEG400/10% Ethanol/60%water), at a dose of 15 mg/kg q7d intravenously or vehicle control (q7d iv) for a period of 16 days.
(§5) The maximum body weight loss was −9% in Compound A′ group compared to −4% in the vehicle group indicating moderate tolerability of Compound A′ at a dose of 15 mg/kg q7d iv. At the end of the experiment the Treatment to Control ratios (T/C) was calculated based on the mean tumor area in the Compound A′ treatment group and in the vehicle control group.

[14] = Tolerability in OCI-LY-3 xenograft study; assay type: in vivo; conditions: 10 mg/kg q7d iv, 14 days
Experimental: as §2, §3

[15] = Tolerability in SU-DHL-10 xenograft study; assay type: in vivo, female SCID mice; conditions: 15 mg/kg q7d iv, 16 days
Experimental: as §4, §5

COc1cc(F)ccc1-c1cc(Nc2cc(CS(C)(=N)=O)ccn2)ncc1F (single isomer, unassigned; (+)) [Compound A′, (+)-5-Fluoro-4-(4-fluoro-2-methoxyphenyl)-N-{4-[(S-methylsulfonimidoyl)methyl]pyridin-2-yl}pyridin-2-amine]
IC50 [1]: 88 nM | IC50 [2]: 196 nM | IC50 [3]: 81 nM | IC50 [4]: 39 nM | IC50 [5]: 83 nM | IC50 [6]: 129 nM | IC50 [7]: 90 nM | IC50 [8]: 105 nM | IC50 [9]: 37 nM | IC50 [10]: 93 nM | IC50 [11]: 100 nM | T/C by area (Treatment to Control ratio, mean tumor area) [12]: 0.29 | T/C by weight (Treatment to Control ratio, mean tumor weight) [12]: 0.24 | T/C by area (Treatment to Control ratio, mean tumor area) [13]: 0.02 | Fatal toxicities [14]: did not occur | maximum body weight loss [14]: −6% | maximum body weight loss [15]: −9%

COc1cc(F)ccc1-c1ncnc(Nc2cccc(CS(C)(=N)=O)c2)n1 (centres unmarked) [FR compound, reference compound]
IC50 [1]: 570 nM | IC50 [2]: 540 nM | IC50 [3]: 710 nM | IC50 [4]: 480 nM | IC50 [5]: 340 nM | IC50 [6]: 600 nM | IC50 [7]: 170 nM | IC50 [9]: 360 nM | IC50 [10]: 610 nM
